PubChem BioAssay (NCI)
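At the GI50, growth is halved. The concentration for full growth arrest is given as TGI.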 Residues, ends and D or L forms follow the SMILES beside them. *: point of attachment. Cbz = O=C(OCc1ccccc1)*

Assays:
Assay in all cases: NCI tumour cell line growth inhibition, 384-well format
UACC-62 melanoma = tested on: UACC-62 melanoma
CCRF-CEM leukemia = tested on: CCRF-CEM leukemia
U251 glioblastoma = tested on: U251 glioblastoma
A549 NSCLC = tested on: A549 NSCLC
HCT-116 colon = tested on: HCT-116 colon
K-562 leukemia = tested on: K-562 leukemia
SNB-19 CNS = tested on: SNB-19 CNS
SK-MEL-2 melanoma = tested on: SK-MEL-2 melanoma
SF-268 CNS = tested on: SF-268 CNS
MCF7 breast = tested on: MCF7 breast
CAKI-1 renal = tested on: CAKI-1 renal
OVCAR-3 ovarian = tested on: OVCAR-3 ovarian
MDA-MB-231 breast = tested on: MDA-MB-231 breast

Row | SMILES | GI50 (UACC-62 melanoma) [nM] | TGI (UACC-62 melanoma) [nM] | GI50 (CCRF-CEM leukemia) [nM] | TGI (CCRF-CEM leukemia) [nM] | GI50 (U251 glioblastoma) [nM] | TGI (U251 glioblastoma) [nM] | GI50 (A549 NSCLC) [nM] | TGI (A549 NSCLC) [nM] | GI50 (HCT-116 colon) [nM] | TGI (HCT-116 colon) [nM] | GI50 (K-562 leukemia) [nM] | TGI (K-562 leukemia) [nM] | GI50 (SNB-19 CNS) [nM] | TGI (SNB-19 CNS) [nM] | GI50 (SK-MEL-2 melanoma) [nM] | TGI (SK-MEL-2 melanoma) [nM] | GI50 (SF-268 CNS) [nM] | TGI (SF-268 CNS) [nM] | GI50 (MCF7 breast) [nM] | TGI (MCF7 breast) [nM] | further results
1 | Cc1[nH]nc2ncc(C(=O)N3CCC[C@H]3c3ccc(Cl)cc3)cc12 | 23400 | 48600 | 15600 | 30600 | 51700 | > 100000 | > 100000 | > 100000 | 37200 | > 100000 | 20900 | 44100 | > 100000 | > 100000 | 25300 | 77500 | > 100000 | > 100000 | 31800 | > 100000 | GI50 (CAKI-1 renal): > 100000 nM; TGI (CAKI-1 renal): > 100000 nM; GI50 (OVCAR-3 ovarian): 26100 nM; TGI (OVCAR-3 ovarian): 99800 nM; GI50 (MDA-MB-231 breast): > 100000 nM; TGI (MDA-MB-231 breast): > 100000 nM
2 | CC(C)C[C@@H](C=O)NC(=O)[C@H](CC(C)C)NC(=O)[C@H](CC(C)C)NC(=O)OCc1ccccc1 (Cbz-Leu-Leu-Leu-aldehyde) | 168 | 312 | 114 | 239 | 211 | 407 | 427 | 1690 | 146 | 296 | 176 | 334 | 161 | 340 | 134 | 268 | 166 | 313 | 99.1 | 603 | GI50 (CAKI-1 renal): 228 nM; TGI (CAKI-1 renal): 676 nM; GI50 (OVCAR-3 ovarian): 94 nM; TGI (OVCAR-3 ovarian): 225 nM; GI50 (MDA-MB-231 breast): 177 nM; TGI (MDA-MB-231 breast): 326 nM
